From US10106778B2, “Selective targeting of cancer stem cells” (Whitehead Institute for Biomedical Research, priority 2012, dated 2018) come the findings set out here.

What all share (format): cell-based, human
Experiment [1] has as its system NAMEC-Tom-Ras and HMLE-GFP-Ras cells. Briefly: Co-mixed NAMEC-Tom-Ras (CSC-enriched) and HMLE-GFP-Ras (CSC-depleted) cells, kinase inhibition, FACS. Conditions: for which cell type is more sensitive / selected against: dose response, co-mixed cells; for resistance of NAMEC-Tom-Ras cells relative to HMLE-GFP-Ras cells: at LC50, co-mixed cells. As for the experimental part: (§1) Kinase inhibitors and other chemical compounds were obtained from various sources listed below. These were dissolved or diluted in DMSO. To set up the screen, 75,000 NAMEC-Tom and 15,000 HMLE-GFP cells were seeded into each well of a 6-well tissue culture plate. The following day, spent media was replaced with 3 ml of fresh media. Inhibitors were added to achieve the desired range of concentrations. For control treatment, DMSO was added. Fresh media containing inhibitors were replaced daily during the six day period. For analysis, cells were trypsinized with 1 ml 0.15% trypsin, diluted with 1 ml serum-containing media and fixed with 1 ml of 4% paraformaldehyde. FACS analysis was performed to analyze the proportion of surviving cells relative to DMSO-treated control for NAMEC-Tom or HMLE-GFP cells. To test the effects of these inhibitors on CSCs and non-CSCs, NAMEC-Ras-Tom and […] were used in similar co-mixed experiments.
as §1, with “experiments. To assess the fraction of cells undergoing apoptosis, cells were exposure to agents for three days without fresh media and then analyzed with Annexin V-APC (BD Biosciences).” for “experiments.”
Having determined that NAMEC-Ras cells were enriched for CSCs, we mixed NAMEC-Ras cells labeled with tdTomato (NAMEC-Tom-Ras) and HMLE-Ras cells labeled with GFP (HMLE-GFP-Ras) and re-tested the effects of kinase inhibition as described above. […] In addition, these NAMEC-Tom-Ras cells were more resistant to paclitaxel (11.3 fold) and staurosporine (32.8 fold) than the corresponding HMLE-GFP-Ras cells used as controls (FIG. 3C).

The test system of another experiment is NAMECs. Briefly: Cellular plasticity of NAMECs: differentiation by PGE2 blockade and inhibitor sensitivity. Conditions: for sensitivity of GW-treated (differentiated) NAMECs: after differentiation with GW627368; for sensitivity of NAMECs relative to parental HMLE cells: undifferentiated NAMECs. An excerpt:
NAMECs are phenotypically plastic and can transit between the epithelial and mesenchymal cell state. The cells relied on autocrinal PGE2 signaling for maintenance of the mesenchymal state.

Experiment [2] has as its system p-PKCα^S497 and p-PKCα^T638. Briefly: Western blot of PKCα phosphorylation in NAMECs. On the procedure: (§2) To obtain protein extracts, cells were scraped from culture dishes in chilled PBS, centrifuged at 450×g for 4 min at 4° C., washed again in PBS, and incubated for 20 min in ice cold lysis buffer containing freshly added protease inhibitors (0.5 mM phenylmethylsulfonyl fluoride, 10 μg/ml leupeptin, 2 μg/ml aprotonin). Lysates were cleared by centrifugation at 12,100×g, 4° C. for 10 min and the supernatant was snap frozen in liquid nitrogen. Protein concentrations were determined using Bradford Dye (Bio-Rad). 30 μg total protein was separated by SDS-PAGE on NuPAge gels (Invitrogen), and transferred to Hybond-P PVDF membrane (GE Healthcare). The membrane was probed with specific primary antibodies and antibody-protein complex detected by HRP-conjugated antibodies and ECL-Plus (Amersham Biosciences).
We subsequently sought to determine whether PKCα activation was directly dependent upon PDGFR-PLCγ. Exposure of NAMECs to a PLCγ inhibitor (U73122) reduced active p-PKCα^S497 and p-PKCα^T638 by 1.3 and 3.1-fold respectively within 30 min, and 6.3 and 4.2-fold respectively by 60 min (FIG. 13C); total PKCα level was unchanged (FIG. 13C). The inhibition of PDGFR in NAMECs, similarly, led to a loss of PKCα phosphorylation (p-PKCα^S497: 2.8 fold, p-PKCα^T638: 5.9 fold), as illustrated once again by the loss of active p-PKCα^S497 and p-PKCα^T638 within 30 min, while total PKCα remained constant (FIG. 13D).

The subject of experiment [3] is NAMEC-Tom and HMLE-GFP cells. Briefly: Kinase inhibitor screen: co-mixed NAMEC-Tom and HMLE-GFP cells, six days of inhibitor, FACS. The conditions noted are these: six days of inhibitor treatment, FACS relative to DMSO. As for the experimental part:
as §1
as §1, with “experiments. To assess the fraction of cells undergoing apoptosis, cells were exposure to agents for three days without fresh media and then analyzed with Annexin V-APC (BD Biosciences).” for “experiments.”
We undertook to identify kinase inhibitors that selectively targeted mesenchymal-like cells including those with stem cell properties. To do so, we established a screen that measured the ability of candidate inhibitors to preferentially deplete NAMECs but not parental HMLE cells from cell cultures. Thus, we labeled NAMECs with the tdTomato red fluorescent protein (NAMEC-Tom) and the HMLE cells with the GFP green fluorescent protein (HMLE-GFP); we then attempted to reconstitute certain stem cell and non-stem cell interactions that might operate in vivo by mixing the two cell populations in 6-well adherent tissue culture plates. One day later, we challenged these cultures with a variety of kinase inhibitors (FIG. 2A).
The robustness of this screen, designed to identify mesenchymal cell-specific inhibitors, was enhanced by seeding NAMEC-Tom and HMLE-GFP cells in a 5:1 ratio. While NAMEC-Tom cells, like others that have passed through an EMT, proliferated marginally more slowly than their epithelial counterparts in culture, their initial advantage in seeding density was compensated over the course of the six day-long assays by the more rapid proliferation of the HMLE-GFP cells (FIG. 11). After six days of treatment, the relative proportions of NAMEC-Tom and HMLE-GFP cells were quantified with fluorescent-activated cell sorting (FACS) to determine the selective effects, if any, of these various inhibitors (FIG. 2A).

The next experiment relates to p-FRA1^S265. In words: Western blot of FRA1 phosphorylation in NAMECs. As for the experimental part:
as §2
FRA1 is a member of the Fos family of transcription factors, which is also comprised of c-Fos, FosB and Fra2. Together with the Jun family of transcription factors composed of c-Jun, JunB and JunD, individual members of the Fos and Jun family associate with one another to form heterodimeric activator protein-1 (AP-1) complexes that bind and transcriptionally regulate target gene expression when phosphorylated (Eferl and Wagner, 2003).
We assessed whether the observed increased p-FRA1 activity in the mesenchymal cells could be further augmented by elevated ERK signaling during EMT. Accordingly, inhibition of ERK1/2 phosphorylation with a MEK inhibitor was able to decrease p-FRA1^S265 levels by 65% but not the levels of total FRA1 or p-c-Jun (FIG. 5G), confirming that ERK1/2 signaling promoted p-FRA1 activity.

A further experiment has as its system NAMEC-Tom cells. Briefly: Annexin V apoptosis in co-mixed culture, NAMEC-Tom gate. The conditions noted are these: co-mixed cells treated for three days. On the procedure:
as §1, with “experiments. To assess the fraction of cells undergoing apoptosis, cells were exposure to agents for three days without fresh media and then analyzed with Annexin V-APC (BD Biosciences).” for “experiments.”
(§3) To assess how PKC inhibitors function in these cell populations, we tested whether they induced apoptosis. Thus, the mixed cell populations described above were treated with one of the inhibitors (Ro-31-8220) for three days and assessed with Annexin V, which marks apoptotic cells. 89% of NAMEC-Tom cells underwent apoptosis in comparison to 22.4% of the HMLE-GFP cells (FIG. 2E).

Another experiment concerns HMLE-GFP cells. Briefly: Annexin V apoptosis in co-mixed culture, HMLE-GFP gate. The conditions noted are these: co-mixed cells treated for three days. As for the experimental part:
as §1, with “experiments. To assess the fraction of cells undergoing apoptosis, cells were exposure to agents for three days without fresh media and then analyzed with Annexin V-APC (BD Biosciences).” for “experiments.”
as §3

`CC#CC(=O)Nc1cc2c(Nc3ccc(F)c(Cl)c3)ncnc2cn1` [EGFR Inh III]: the “which cell type is more sensitive / selected against” value in experiment [1] was “HMLE-Ras-GFP were more sensitive”.
The same measure, in the same setting: in the case of `O=C(Nc1cccc(Nc2cc(Nc3cccc(C(F)(F)F)c3)ncn2)c1)C1CC1` [EGFR Inh] it was “HMLE-Ras-GFP were more sensitive”.
Turning to `CCOc1c2c(c(OCC)c3ccccc13)C(=O)N(c1ccc(CC(=O)NS(=O)(=O)c3ccccc3)cc1)C2` [GW627368], in the experiment with NAMECs (PGE2 inhibition), the “protein changes accompanying differentiation” value is “downregulation of p-PKCα and SPHK1/2 proteins”. Further, in the experiment with NAMECs (blocked PGE2 signaling), the “morphology of NAMECs” value was “differentiated into an epithelial morphology within three weeks”.
As to `Oc1ccc(Nc2nc(-c3ccc(Cl)cc3)cs2)cc1` [SKI2], in the experiment with NAMECs, the “sensitivity of GW-treated (differentiated) NAMECs” value was “lost their sensitivity” and the “sensitivity of NAMECs relative to parental HMLE cells” value is given as “more sensitive”.
`COc1ccc2c(c1)CC[C@@H]1[C@@H]2CC[C@]2(C)[C@@H](NCCCCCCN3C(=O)C=CC3=O)CC[C@@H]12` [U73122]: in experiment [2], the “effect on PKCα phosphorylation” value is recorded as “The upregulation of PKCα phosphorylation by PDGFC was blocked” and the “total PKCα level” value is “unchanged”. Also, in experiment [2] (by 60 min), the “reduction of p-PKCα^S497” value worked out at 6.3 fold and the “reduction of p-PKCα^T638” value is on record as 4.2 fold. Also, in experiment [2] (within 30 min), the “reduction of p-PKCα^S497” value is 1.3 fold and the “reduction of p-PKCα^T638” value was 3.1 fold.
For the compound `CCCCCCCCc1cccc(NC(=O)[C@H](N)COP(=O)(O)O)c1` [VPC23019], in experiment [1], the “which cell type is more sensitive / selected against” value is recorded as “selected against NAMEC-Tom-Ras cells relative to HMLE-GFP-Ras cells in a dose-dependent manner”.
With `CN(C)CCCn1cc(C2=C(c3c[nH]c4ccccc34)C(=O)NC2=O)c2ccccc21` [bisindolylmaleimide I], the “preferential depletion of NAMEC-Tom or HMLE-GFP cells in co-mixed culture” value (“preferential depletion” for short) in experiment [3] was “diminished NAMEC-Tom cells relative to HMLE-GFP cells”. Moreover, the “effect on phosphorylation of FRA1” value in the experiment with p-FRA1^S265 (applied to NAMECs for 30 min) was “blocked the phosphorylation of FRA1”. For the same compound, the “total FRA1” value in the experiment with p-FRA1^S265 (within 30 min of treatment) was “unchanged”.
Regarding `COc1cccc2c1C(=O)c1c(O)c3c(c(O)c1C2=O)C[C@@](O)(C(=O)CO)C[C@@H]3O[C@H]1C[C@H](N)[C@H](O)[C@H](C)O1` [doxorubicin], the “preferential depletion” value in experiment [3] was “preferentially depleted the epithelial HMLE-GFP cells”.
On to `CC(=O)O[C@H]1C(=O)[C@@]2(C)[C@H]([C@H](OC(=O)c3ccccc3)[C@]3(O)C[C@H](OC(=O)[C@H](O)[C@@H](NC(=O)c4ccccc4)c4ccccc4)C(C)=C1C3(C)C)[C@]1(OC(C)=O)CO[C@@H]1C[C@@H]2O` [paclitaxel], for which, in experiment [3], the “preferential depletion” value is reported as “preferentially depleted the epithelial HMLE-GFP cells”. In the experiment on NAMECs, the “sensitivity of GW-treated (differentiated) NAMECs” value was “became sensitive” and the “sensitivity of NAMECs relative to parental HMLE cells” value is “resistant”. In addition, the “resistance of NAMEC-Tom-Ras cells relative to HMLE-GFP-Ras cells” value in experiment [1] amounted to 11.3 fold. The “apoptosis of NAMEC-Tom cells (Annexin V)” value in the experiment with NAMEC-Tom cells turned out to be 22.3%. The “apoptosis of HMLE-GFP cells (Annexin V)” value in the experiment with HMLE-GFP cells is given as 89%.
As for `CN[C@@H]1C[C@H]2O[C@@](C)([C@@H]1OC)n1c3ccccc3c3c4c(c5c6ccccc6n2c5c31)C(=O)NC4` [staurosporine], in experiment [3], the “preferential depletion” value is “preferentially depleted the epithelial HMLE-GFP cells”. Besides, in the experiment on NAMECs, the “sensitivity of GW-treated (differentiated) NAMECs” value is “became sensitive” and the “sensitivity of NAMECs relative to parental HMLE cells” value is “resistant”. Also, the “resistance of NAMEC-Tom-Ras cells relative to HMLE-GFP-Ras cells” value in experiment [1] was 32.8 fold. Further, in the experiment on NAMEC-Tom cells, the “apoptosis of NAMEC-Tom cells (Annexin V)” value is on record as 29.7%. In the experiment with HMLE-GFP cells, the “apoptosis of HMLE-GFP cells (Annexin V)” value amounted to 98%.
Consider “PKC 20-28: PKCα inhibitor, EMD Biosciences 476480 (FARKGALRQ; pseudosubstrate peptide; UniProt P17252 20-28, looked up, fragment)”, for which, in experiment [3], the “preferential depletion” value is given as “diminished NAMEC-Tom cells relative to HMLE-GFP cells”.
